Results reported in patent publication US20090111825A1, “THIOPHENE 1,2,4-TRIAZOLE DERIVATIVES AS MODULATORS OF MGLUR5” (priority 2007, published 2009).

Key:
[1] = Determination of brain to plasma ratio in rat; format: in vivo; conditions: brain and plasma, female Sprague Dawley rats, drug in brain over drug in plasma, read-out: Brain/Plasma Ratio of compound in Rat
Protocol: Brain to plasma ratios are estimated in female Sprague Dawley rats. The compound is dissolved in water or another appropriate vehicle. For determination of brain to plasma ratio the compound is administrated as a subcutaneous, or an intravenous bolus injection, or an intravenous infusion, or an oral administration. At a predetermined time point after the administration a blood sample is taken with cardiac puncture. The rat is terminated by cutting the heart open, and the brain is immediately retained. The blood samples are collected in heparinized tubes and centrifuged within 30 minutes, in order to separate the plasma from the blood cells. The plasma is transferred to 96-well plates and stored at −20° C. until analysis. The brains are divided in half, and each half is placed in a pre-tarred tube and stored at −20° C. until analysis. Prior to the analysis, the brain samples are thawed and 3 mL/g brain tissue of distilled water is added to the tubes. The brain samples are sonicated in an ice bath until the samples are homogenized. Both brain and plasma samples are precipitated with acetonitrile. After centrifugation, the supernatant is diluted with 0.2% formic acid. Analysis is performed on a short reversed-phase HPLC column with rapid gradient elution and MSMS detection using a triple quadrupole instrument with electrospray ionization and Selected Reaction Monitoring (SRM) acquisition. Liquid-liquid extraction may be used as an alternative sample clean-up. The samples are extracted, by shaking, to an organic solvent after addition of a suitable buffer. An aliquot of the organic layer is transferred to a new vial and evaporated to dryness under a stream of nitrogen. After reconstitution of the residuals the samples are ready for injection onto the HPLC column.

[2] = target: T1, human mGluR5d (Homo sapiens, UniProt P41594); assay: FLIPR assay, mobilization of intracellular calcium in cells expressing human mGluR5d; format: cell-based; conditions: antagonism of agonist response, read-out: FLIPR hmGluR5d
T1 construct: expressed in transfected cells
From the text: The properties of the compounds of the invention can be analyzed using standard assays for pharmacological activity. Examples of glutamate receptor assays are well known in the art as described in for example Aramori et al., Neuron 8:757 (1992), Tanabe et al., Neuron 8:169 (1992), Miller et al., J. Neuroscience 15: 6103 (1995), Balazs, et al., J. Neurochemistry 69:151 (1997). The methodology described in these publications is incorporated herein by reference. Conveniently, the compounds of the invention can be studied by means of an assay (FLIPR) that measures the mobilization of intracellular calcium, [Ca^2+]i in cells expressing mGluR5 or another assay (IP3) that measures inositol phosphate turnover.
Cells expressing human mGluR5d as described in WO97/05252 cultured in a mixture of high glucose DMEM with Glutamax (31966-021)(500 mL), 10% dialyzed fetal bovine serum (Hyclone #SH30079.03)(56 mL), 200 μg/mL Hygromycin B (Invitrogen 45-0430, 50 mg/mL)(2.2 mL), 200 μg/mL Zeocin (Invitrogen #R250-01; 100 mg/mL)(1.1 mL) are seeded at a density of 100,000 cells per well on collagen coated clear bottom 96-well plates with black sides and cells were allowed to adhere over night before experiments. All assays are done in a buffer containing 146 mM NaCl, 5 mM KCl, 1 mM MgCl2, 1 mM CaCl2, 20 mM HEPES, 1 mg/mL glucose and 1 mg/mL BSA Fraction IV (pH 7.4). Cell cultures in the 96-well plates are loaded for 60 minutes in the above mentioned buffer containing 6 μM of the acetoxymethyl ester form of the fluorescent calcium indicator fluo-3 (Molecular Probes, Eugene, Oreg.) in 0.025% pluronic acid (a proprietary, non-ionic surfactant polyol—CAS Number 9003-11-6). Following the loading period the fluo-3 buffer is removed and replaced with fresh assay buffer. FLIPR experiments are done using a laser setting of 0.700 W and a 0.4 second CCD camera shutter speed with excitation and emission wavelengths of 488 nm and 562 nm, respectively. Each experiment is initiated with 160 μl of buffer present in each well of the cell plate. A 40 μl addition from the antagonist plate was followed by a 50 μL addition from the agonist plate. A 30 minutes, in dark at 25° C., interval separates the antagonist and agonist additions. The fluorescence signal is sampled 50 times at 1-second intervals followed by 3 samples at 5-second intervals immediately after each of the two additions. Responses are measured as the difference between the peak heights of the response to agonist) less the background fluorescence within the sample period. IC50 determinations are made using a linear least squares fitting program.

T1 sequence (P41594 21-942 isoform P41594-3 limits assumed): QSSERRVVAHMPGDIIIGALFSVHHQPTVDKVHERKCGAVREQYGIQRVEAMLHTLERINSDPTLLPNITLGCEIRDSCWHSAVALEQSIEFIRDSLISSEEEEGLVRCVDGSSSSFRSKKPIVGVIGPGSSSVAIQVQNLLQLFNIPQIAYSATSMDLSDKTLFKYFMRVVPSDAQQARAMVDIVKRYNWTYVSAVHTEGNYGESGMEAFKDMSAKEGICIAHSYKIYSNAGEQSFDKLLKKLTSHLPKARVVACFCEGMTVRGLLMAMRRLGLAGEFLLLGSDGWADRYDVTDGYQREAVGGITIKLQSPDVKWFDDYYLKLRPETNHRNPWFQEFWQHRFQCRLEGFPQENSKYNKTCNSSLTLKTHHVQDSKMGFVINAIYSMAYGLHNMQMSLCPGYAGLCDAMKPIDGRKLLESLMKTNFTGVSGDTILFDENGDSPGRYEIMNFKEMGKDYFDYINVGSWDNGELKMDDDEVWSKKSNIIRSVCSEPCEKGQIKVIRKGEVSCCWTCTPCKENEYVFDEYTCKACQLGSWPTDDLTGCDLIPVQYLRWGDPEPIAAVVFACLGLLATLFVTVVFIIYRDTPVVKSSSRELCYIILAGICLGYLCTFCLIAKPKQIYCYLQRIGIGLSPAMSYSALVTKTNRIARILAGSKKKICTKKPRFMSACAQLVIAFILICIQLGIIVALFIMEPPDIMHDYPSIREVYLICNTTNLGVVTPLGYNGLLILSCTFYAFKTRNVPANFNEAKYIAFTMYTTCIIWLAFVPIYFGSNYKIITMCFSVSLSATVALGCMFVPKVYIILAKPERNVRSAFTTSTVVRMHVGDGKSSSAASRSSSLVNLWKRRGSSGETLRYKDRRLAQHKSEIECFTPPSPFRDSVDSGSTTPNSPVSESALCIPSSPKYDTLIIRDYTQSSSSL

Row | Structure (SMILES) | Kp [1] | IC50 [2] [nM]
1 | Cn1c(-c2cnn(C)c(=O)c2)nnc1N1CCC[C@@H]1c1cc(-c2csc(Cl)c2)on1 [Example 10.3, 5-(5-{(2R)-2-[5-(5-Chloro-3-thienyl)isoxazol-3-yl]pyrrolidin-1-yl}-4-methyl-4H-1,2,4-triazol-3-yl)-2-methylpyridazin-3(2H)-one] | 0.16 | 61
2 | Cn1c(-c2cn[nH]c(=O)c2)nnc1N1[C@@H](c2cc(-c3csc(Cl)c3)on2)C[C@H]2C[C@H]21 [Example 10.1, 5-(5-{(1R,3R,5R)-3-[5-(5-Chloro-3-thienyl)isoxazol-3-yl]-2-azabicyclo[3.1.0]hex-2-yl}-4-methyl-4H-1,2,4-triazol-3-yl)pyridazin-3(2H)-one] | 0.06 | 34
3 | Cn1c(-c2cc[nH]c(=O)c2)nnc1N1[C@@H](c2cc(-c3csc(Cl)c3)on2)C[C@H]2C[C@H]21 [Example 10.2, 4-(5-{(1R,3R,5R)-3-[5-(5-Chloro-3-thienyl)isoxazol-3-yl]-2-azabicyclo[3.1.0]hex-2-yl}-4-methyl-4H-1,2,4-triazol-3-yl)pyridin-2(1H)-one] | < 0.01 | 35
4 | Cn1c(-c2cn[nH]c(=O)c2)nnc1N1CCC[C@@H]1c1cc(-c2csc(Cl)c2)on1 [Example 10.4, 5-(5-{(2R)-2-[5-(5-Chloro-3-thienyl)isoxazol-3-yl]pyrrolidin-1-yl}-4-methyl-4H-1,2,4-triazol-3-yl)pyridazin-3(2H)-one] | < 0.01 | 39

More lines, in order of falling IC50 [2], values ahead:

Row | Kp [1] | IC50 [2] [nM] | Structure (SMILES)
5 | 0.03 | 44 | Cn1c(-c2ccn(C)c(=O)c2)nnc1N1CCC[C@@H]1c1cc(-c2csc(Cl)c2)on1 [Example 10.5, 4-(5-{(2R)-2-[5-(5-Chloro-3-thienyl)isoxazol-3-yl]pyrrolidin-1-yl}-4-methyl-4H-1,2,4-triazol-3-yl)-1-methylpyridin-2(1H)-one]
6 | < 0.01 | 35 | Cn1c(-c2cc[nH]c(=O)c2)nnc1N1CCC[C@@H]1c1cc(-c2csc(Cl)c2)on1 [Example 10.6, 4-(5-{(2R)-2-[5-(5-Chloro-3-thienyl)isoxazol-3-yl]pyrrolidin-1-yl}-4-methyl-4H-1,2,4-triazol-3-yl)pyridin-2(1H)-one]
